Mortality data for 33 molecules are collected here from US20040142821A1, “Pesticide composition comprising malononitrile compounds” (priority 2001, published 2004).

The structures appear in SMILES notation.

For one assay, the system named is German cockroach. Kind of assay: Pesticidal test against German cockroach, treated filter paper with sucrose bait (Test Example 6). The settings on record: Blattella germanica, 144 h; 500 ppm test liquid (Formulation Example 5), 0.7 ml on filter paper; two male adults; after 6 days. Format: in vivo. The source says: Two male adults of German cockroach (Blattalla germanica) were set free in the polyethylene cup, which was then kept covered. After 6 days, their survival was examined to determine the mortality.

The subject of another assay is Cullex pipiens pallens. Kind of assay: whole plant or invertebrate. To be noted: 24 h.
Another assay has as its system Musca domestics. The experiment in a line: Pesticidal test against Musca domestics, treated filter paper with sucrose bait (Test Example 5). To be noted: 500 ppm test liquid (Formulation Example 5), 0.7 ml on filter paper, ten female adults, after 24 hours. It counts as in vivo. Here is the method: Ten female adults of Musca domestics (house fly) were set free in the polyethylene cup, which was then kept covered. After 24 hours, their survival was examined to determine the mortality.

Description for Cullex pipiens pallens: In 100 ml of ion-exchanged water, the test liquid had been prepared as described above, was added dropwise in an amount of 0.7 ml (the concentration of active ingredient was 3.5 ppm). Twenty final-instar larvae of Cullex pipiens pallens (common mosquito) were set free in the solution. After 1 days, their survival was examined to determine the mortality.

As a reminder, the mortality is the share of the test organisms that died. As to `C=CCCC(C#N)(C#N)Cc1ccc(OC(F)(F)F)cc1` [Compound 15, 2-(3-butenyl)-2-(4-(trifluoromethoxy)benzyl)malononitrile], the mortality at 500 ppm with German cockroach and in the assay with Musca domestics was 100% throughout. The mortality at 3.5 µg/mL with Cullex pipiens pallens is 100%.
As to `C=CCC(C#N)(C#N)Cc1cccc(Cl)c1` [Compound 17, 2-allyl-2-(3-chlorobenzyl)malononitrile], the mortality at 500 ppm with German cockroach and in the assay with Musca domestics was 100% throughout. In the assay with Cullex pipiens pallens, this molecule displayed a mortality at 3.5 µg/mL of 100%.
Turning to `C=CCC(C#N)(C#N)C(C)c1ccc(OC(F)(F)F)cc1` (stereo not shown) [Compound 30, 2-allyl-2-(1-(4-(trifluoromethoxy)phenyl)ethyl)malononitrile], the mortality at 500 ppm in the assay with German cockroach and in the assay on Musca domestics was 100% in each case. The molecule further returned a mortality at 3.5 µg/mL with Cullex pipiens pallens of 100%.
Consider `C=CCC(C#N)(C#N)C(CCl)c1ccc(OC(F)(F)F)cc1` (stereo not shown) [Compound 31, 2-allyl-2-(1-(4-(trifluoromethoxy)phenyl)-2-chloroethyl)malononitrile], for which the mortality at 500 ppm with German cockroach and in the assay on Musca domestics was 100% in each case. In the assay on Cullex pipiens pallens, this molecule registered a mortality at 3.5 µg/mL of 100%.
Regarding `C=CCCC(C#N)(C#N)C(C=C)c1ccc(OC(F)(F)F)cc1` (stereo not shown) [Compound 32, 2-(3-butenyl)-2-(1-(4-(trifluoromethoxy)phenyl)-2-propenyl)malononitrile], the mortality at 500 ppm in the assay with German cockroach and with Musca domestics was 100% throughout. In the assay with Cullex pipiens pallens, this molecule registered a mortality at 3.5 µg/mL of 100%.
For the molecule `C=CCC(C#N)(C#N)C(C=C)c1ccc(OC(F)(F)F)cc1` (stereo not shown) [Compound 33, 2-allyl-2-(1-(4-(trifluoromethoxy)phenyl)-2-propenyl)malononitrile], the mortality at 500 ppm in the assay on German cockroach and in the assay on Musca domestics was 100% each time. This molecule displayed a mortality at 3.5 µg/mL in the assay on Cullex pipiens pallens of 100%.
Consider `C=CCCC(C#N)(C#N)Cc1ccc(OC(F)F)cc1` [Compound 36, 2-(3-butenyl)-2-(4-(difluoromethoxy)benzyl)malononitrile], for which the mortality at 500 ppm in the assay with German cockroach and in the assay on Musca domestics was 100% each time. Further, the mortality at 3.5 µg/mL with Cullex pipiens pallens was 100%.
On to `C=CCC(C#N)(C#N)C(OC)c1ccc(OC(F)(F)F)cc1` (stereo not drawn) [Compound 39, 2-allyl-2-(4-(trifluoromethoxy)-α-methoxybenzyl)malononitrile], for which the mortality at 500 ppm in the assay with German cockroach and with Musca domestics was 100% throughout. The mortality at 3.5 µg/mL in the assay with Cullex pipiens pallens worked out at 100%.
For the molecule `C=CCC(C#N)(C#N)Cc1ccc(SC(F)(F)F)cc1` [Compound 41, 2-allyl-2-(4-(trifluoromethylthio)benzyl)malononitrile], the mortality at 500 ppm with German cockroach and in the assay on Musca domestics was 100% each time. This molecule also came in with a mortality at 3.5 µg/mL in the assay with Cullex pipiens pallens of 100%.
On to `C=CCCC(C#N)(C#N)Cc1ccc(SC(F)(F)F)cc1` [Compound 42, 2-(3-butenyl)-2-(4-(trifluoromethylthio)benzyl)malononitrile], for which the mortality at 500 ppm with German cockroach and in the assay on Musca domestics was 100% throughout. For the same molecule, in the assay on Cullex pipiens pallens, the mortality at 3.5 µg/mL was determined as 100%.
For the molecule `C=CCC(C#N)(C#N)C(OC)c1ccc(SC(F)(F)F)cc1` (stereo not drawn) [Compound 43, 2-allyl-2-(4-(trifluoromethylthio)-α-methoxybenzyl)malononitrile], the mortality at 500 ppm in the assay with German cockroach and in the assay on Musca domestics was 100% throughout. Moreover, the mortality at 3.5 µg/mL in the assay on Cullex pipiens pallens turned out to be 100%.
With `CC=CCC(C#N)(C#N)Cc1ccc(SC(F)(F)F)cc1` [Compound 46, 2-(2-butenyl)-2-(4-(trifluoromethylthio)benzyl)malononitrile], the mortality at 500 ppm in the assay with German cockroach and in the assay with Musca domestics was 100% each time. In the assay with Cullex pipiens pallens, this molecule registered a mortality at 3.5 µg/mL of 100%.
`C=CC(C)C(C#N)(C#N)Cc1ccc(SC(F)(F)F)cc1` (stereo not shown) [Compound 47, 2-(1-methyl-2-propenyl)-2-(4-(trifluoromethylthio)benzyl)malononitrile]: the mortality at 500 ppm with German cockroach and in the assay on Musca domestics was 100% each time. This molecule also yielded a mortality at 3.5 µg/mL in the assay with Cullex pipiens pallens of 100%.
For `C=CCCC(C#N)(C#N)Cc1ccc(C(F)(F)F)cc1` [Compound 52, 2-(3-butenyl)-2-(4-(trifluoromethyl)benzyl)malononitrile], the mortality at 500 ppm with German cockroach and in the assay on Musca domestics was 100% throughout. The same molecule showed a mortality at 3.5 µg/mL with Cullex pipiens pallens of 100%.
For `C=CCC(C#N)(C#N)C(C#N)c1ccc(OC(F)(F)F)cc1` (stereo not drawn) [Compound 55, 2-allyl-2-(4-(trifluoromethoxy)-α-cyanobenzyl)malononitrile], the mortality at 500 ppm in the assay with German cockroach and with Musca domestics was 100% each time. The mortality at 3.5 µg/mL with Cullex pipiens pallens turned out to be 100%.
For `C=CCC(C#N)(C#N)C(C#N)c1ccc(SC(F)(F)F)cc1` (stereo not drawn) [Compound 56, 2-allyl-2-(4-(trifluoromethylthio)-α-cyanobenzyl)malononitrile], the mortality at 500 ppm with German cockroach and with Musca domestics was 100% in each case. The same molecule gave a mortality at 3.5 µg/mL in the assay with Cullex pipiens pallens of 100%.
For the molecule `C=CCC(C#N)(C#N)Cc1ccc(C(F)(F)F)cc1C(F)(F)F` [Compound 57, 2-allyl-2-(2,4-bis(trifluoromethyl)benzyl)malononitrile], the mortality at 500 ppm in the assay with German cockroach and in the assay on Musca domestics was 100% each time. This molecule showed a mortality at 3.5 µg/mL in the assay with Cullex pipiens pallens of 100%.
`C=CCC(C#N)(C#N)Cc1ccc(C(F)(F)F)cc1Cl` [Compound 58, 2-allyl-2-(2-chloro-4-(trifluoromethyl)benzyl)malononitrile]: the mortality at 500 ppm in the assay on German cockroach and in the assay on Musca domestics was 100% throughout. In the assay with Cullex pipiens pallens, this molecule displayed a mortality at 3.5 µg/mL of 100%.
As to `CC#CCC(C#N)(C#N)Cc1ccc(OC(F)(F)F)cc1` [Compound 59, 2-(2-butynyl)-2-(4-(trifluoromethoxy)benzyl)malononitrile], the mortality at 500 ppm in the assay with German cockroach and with Musca domestics was 100% each time. The mortality at 3.5 µg/mL in the assay with Cullex pipiens pallens came to 100%.
As to `C=CCCC(C#N)(C#N)Cc1ccc(C(F)(F)F)cc1Cl` [Compound 60, 2-(3-butenyl)-2-(2-chloro-4-(trifluoromethyl)benzyl)malononitrile], the mortality at 500 ppm in the assay on German cockroach and with Musca domestics was 100% throughout. In addition, the mortality at 3.5 µg/mL in the assay with Cullex pipiens pallens came out at 100%.
Regarding `C=CCC(C#N)(C#N)Cc1c(Cl)cc(C(F)(F)F)cc1Cl` [Compound 64, 2-allyl-2-(2,6-dichloro-4-(trifluoromethyl)benzyl)malononitrile], the mortality at 500 ppm with German cockroach and in the assay with Musca domestics was 100% each time. The same molecule registered a mortality at 3.5 µg/mL with Cullex pipiens pallens of 100%.
Regarding `CC(C#N)(C#N)Cc1ccc(Cl)cc1` [Compound 68, 2-(4-chlorobenzyl)-2-methylmalononitrile], the mortality at 500 ppm with German cockroach and in the assay on Musca domestics was 100% throughout. Further, the mortality at 3.5 µg/mL in the assay with Cullex pipiens pallens was determined as 100%.
`C=CCC(C#N)(C#N)Cc1ccc(C(F)(F)F)c(F)c1` [Compound 69, 2-allyl-2-(3-fluoro-4-(trifluoromethyl)benzyl)malononitrile]: the mortality at 500 ppm with German cockroach and with Musca domestics was 100% in each case. The molecule further came in with a mortality at 3.5 µg/mL in the assay on Cullex pipiens pallens of 100%.
As for `C=CCCCC(C#N)(C#N)Cc1ccc(C(F)(F)F)cc1` [Compound 79, 2-(4-pentenyl)-2-(4-(trifluoromethyl)benzyl)malononitrile], the mortality at 500 ppm with German cockroach and in the assay with Musca domestics was 100% in each case. The mortality at 3.5 µg/mL with Cullex pipiens pallens was determined as 100%.
As for `C=CCC(C#N)(C#N)C(OC)c1ccc(Cl)cc1` (stereo not drawn) [Compound 84, 2-allyl-2-(4-chloro-α-methoxybenzyl)malononitrile], the mortality at 500 ppm in the assay with German cockroach and with Musca domestics was 100% throughout. Moreover, in the assay on Cullex pipiens pallens, the mortality at 3.5 µg/mL is 100%.
In the case of `C=CCC(C#N)(C#N)Cc1cccc(OC(F)(F)F)c1` [Compound 89, 2-allyl-2-(3-(trifluoromethoxy)benzyl)malononitrile], the mortality at 500 ppm in the assay on German cockroach and in the assay with Musca domestics was 100% in each case. For the same molecule, in the assay with Cullex pipiens pallens, the mortality at 3.5 µg/mL was 100%.
Consider `C=CCC(C#N)(C#N)Cc1ccc(C(C)C)cc1` [Compound 102, 2-allyl-2-(4-isopropylbenzyl)malononitrile], for which the mortality at 500 ppm with German cockroach and in the assay with Musca domestics was 100% in each case. The molecule also came in with a mortality at 3.5 µg/mL in the assay on Cullex pipiens pallens of 100%.
As for `CCCCC(C#N)(C#N)Cc1ccc(C(F)(F)F)cc1` [Compound 109, 2-butyl-2-(4-(trifluoromethyl)benzyl)malononitrile], the mortality at 500 ppm in the assay on German cockroach and in the assay with Musca domestics was 100% throughout. Besides, the mortality at 3.5 µg/mL in the assay with Cullex pipiens pallens amounted to 100%.
With `CC(C)CC(C#N)(C#N)Cc1ccc(C(F)(F)F)cc1` [Compound 110, 2-(2-methylpropyl)-2-(4-(trifluoromethyl)benzyl)malononitrile], the mortality at 500 ppm in the assay on German cockroach and in the assay with Musca domestics was 100% throughout. In the assay with Cullex pipiens pallens, this molecule came in with a mortality at 3.5 µg/mL of 100%.
Turning to `C=CCC(C#N)(C#N)Cc1cccc(F)c1F` [Compound 114, 2-allyl-2-(2,3-difluorobenzyl)malononitrile], the mortality at 500 ppm with German cockroach and in the assay with Musca domestics was 100% each time.
In the assay on German cockroach, `C=CCC(C#N)(C#N)Cc1ccc(Oc2cccc(C)c2)cc1` [Compound 119, 2-allyl-2-(4-(m-tolyloxy)benzyl)malononitrile] registered a mortality at 500 ppm of 100%.
Take `C=CCC(C#N)(C#N)Cc1c(F)cc(F)cc1F` [Compound 120, 2-allyl-2-(2,4,6-trifluorobenzyl)malononitrile]: the mortality at 500 ppm with German cockroach and in the assay with Musca domestics was 100% throughout.
Molecule `C=CCC(C#N)(C#N)Cc1ccc(Oc2ccc(Cl)cc2)cc1` [Compound 121, 2-allyl-2-(4-(p-chlorophenoxy)benzyl)malononitrile] displayed a mortality at 500 ppm in the assay with German cockroach of 100%. For the same molecule, the mortality at 3.5 µg/mL in the assay with Cullex pipiens pallens is 100%.
